Reference: ChEMBL document CHEMBL1201862, “PubChem BioAssay data set” (2004)
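Grown in 96-well plates, cells were treated for 48 hours with each compound at five concentrations. Insufficient inhibition: endpoint recorded as highest concentration tested. GI50 marks 50% less growth.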 Activity calls are given as the source filed them. No stated cut-off is given here; in the data, active = GI50 up to about 1.1 µM and inactive = higher.

How the values were obtained:
Experiment in all cases: growth of human tumour cells (NCI), 48 h
M19-MEL = test system: M19-MEL
COLO 205 = test system: COLO 205
Malme-3M = test system: Malme-3M
786-0 = test system: 786-0
MOLT-4 = test system: MOLT-4
SF-268 = test system: SF-268
UACC-62 = test system: UACC-62
HL-60 = test system: HL-60
SNB-75 = test system: SNB-75
KM12 = test system: KM12
SK-MEL-5 = test system: SK-MEL-5
UACC-257 = test system: UACC-257
CAKI-1 = test system: CAKI-1
OVCAR-5 = test system: OVCAR-5
HCC 2998 = test system: HCC 2998

Measured: GI50

CC(C)[C@H]1CO[C@@H]2O[C@H](C)CC(=O)N21
inactive: M19-MEL > 100 µM | COLO 205 > 100 µM | Malme-3M > 100 µM | 786-0 > 100 µM | MOLT-4 > 100 µM | SF-268 > 100 µM | UACC-62 > 100 µM | HL-60 > 100 µM | SNB-75 > 100 µM | KM12 > 100 µM | SK-MEL-5 > 100 µM | UACC-257 > 100 µM | CAKI-1 > 100 µM

O=C(N/C(=C\c1ccc(Oc2ccc(Cl)c(Cl)c2)cc1)c1nc2ccccc2[nH]1)c1ccccc1
inactive: M19-MEL 27.6 µM | COLO 205 21.9 µM | Malme-3M 20.9 µM | 786-0 17.3 µM | MOLT-4 18.7 µM | OVCAR-5 22.4 µM | SF-268 18.1 µM | UACC-62 13.7 µM | HCC 2998 16.4 µM | KM12 15.3 µM | SK-MEL-5 16.1 µM | CAKI-1 21 µM

CCN(CC)CCn1c2ccccc2c(=O)c2c(OC)ccc(OC)c21
inactive: M19-MEL 65 µM | COLO 205 38.7 µM | Malme-3M 77.4 µM | 786-0 69.5 µM | MOLT-4 36.8 µM | OVCAR-5 99.5 µM | SF-268 55.8 µM | UACC-62 > 10 µM | HL-60 84.3 µM | KM12 56.9 µM | UACC-257 45.8 µM | CAKI-1 68.5 µM

CC(=O)OCC1=CC2CCC3C(C)(CCC[C@]3(C)COC(C)=O)C23CC[C@H]1C3 (stereo partly drawn)
inactive: M19-MEL 34.5 µM | COLO 205 24 µM | Malme-3M 52.8 µM | 786-0 57.3 µM | MOLT-4 20.1 µM | OVCAR-5 > 100 µM | SF-268 > 100 µM | UACC-62 36.1 µM | HCC 2998 22.3 µM | HL-60 26 µM | SNB-75 34.9 µM | KM12 33.7 µM | SK-MEL-5 25.5 µM | UACC-257 37.7 µM | CAKI-1 39.6 µM

CCCCCCCCCCCCn1[nH]c(C)c(C(=S)SCCCCCCCC)c1=O
inactive: M19-MEL 23.6 µM | COLO 205 37.2 µM | Malme-3M > 100 µM | 786-0 45.4 µM | MOLT-4 14 µM | OVCAR-5 > 100 µM | SF-268 > 72.6 µM | UACC-62 21.1 µM | HCC 2998 > 96.6 µM | HL-60 45.1 µM | SNB-75 > 100 µM | KM12 70.1 µM | SK-MEL-5 49 µM | UACC-257 41.8 µM | CAKI-1 32.1 µM

Cc1csc(CCC(N)C(=O)O)n1 (stereo not drawn)
inactive: M19-MEL > 100 µM | COLO 205 > 100 µM | Malme-3M > 100 µM | 786-0 > 100 µM | MOLT-4 > 100 µM | UACC-62 > 100 µM | HCC 2998 > 100 µM | SNB-75 > 100 µM | KM12 > 100 µM | SK-MEL-5 > 100 µM | UACC-257 > 100 µM | CAKI-1 > 100 µM

CCC(CC)n1c(C)nc2c1C(=O)c1ccccc1C2=O
inactive: M19-MEL 14.9 µM | COLO 205 26.9 µM | Malme-3M 26.1 µM | 786-0 57.1 µM | MOLT-4 41.2 µM | SF-268 49.2 µM | UACC-62 10.3 µM | HCC 2998 77.4 µM | HL-60 10.7 µM | SNB-75 20.6 µM | KM12 36.9 µM | SK-MEL-5 15.7 µM | UACC-257 24 µM

CC1COS(=O)O1 (stereo not drawn)
inactive: M19-MEL > 100 µM | COLO 205 > 100 µM | Malme-3M > 100 µM | 786-0 > 100 µM | MOLT-4 > 100 µM | OVCAR-5 > 100 µM | SF-268 > 100 µM | UACC-62 > 100 µM | HCC 2998 > 100 µM | HL-60 > 100 µM | SNB-75 63 µM | KM12 > 100 µM | SK-MEL-5 > 100 µM | UACC-257 > 100 µM | CAKI-1 > 100 µM

COC(=O)C(C(=O)C(=O)Nc1nc2ccc([N+](=O)[O-])cc2s1)c1nc2ccc(Cl)cc2nc1O (stereo not drawn)
inactive: M19-MEL > 100 µM | COLO 205 > 100 µM | Malme-3M > 100 µM | 786-0 > 100 µM | MOLT-4 > 100 µM | OVCAR-5 > 100 µM | SF-268 > 100 µM | UACC-62 > 100 µM | HCC 2998 > 100 µM | HL-60 > 100 µM | SNB-75 52 µM | KM12 > 100 µM | SK-MEL-5 > 100 µM | UACC-257 > 100 µM | CAKI-1 71.3 µM

O=C1CCC(=O)c2c1c(O)c1ccncc1c2O
inactive: M19-MEL 2.92 µM | COLO 205 7.94 µM | Malme-3M 16 µM | 786-0 15.7 µM | MOLT-4 18.2 µM | OVCAR-5 23 µM | UACC-62 6.4 µM | HCC 2998 15.4 µM | HL-60 7.94 µM | SNB-75 18.7 µM | KM12 16.3 µM | SK-MEL-5 11.4 µM | UACC-257 7.5 µM | CAKI-1 23.9 µM

COC(=O)C1=NC(=S)NC(c2ccccc2)C1c1nc2ccccc2o1 (stereo not drawn)
inactive: M19-MEL > 50 µM | COLO 205 > 50 µM | Malme-3M > 50 µM | 786-0 > 50 µM | MOLT-4 > 50 µM | OVCAR-5 > 50 µM | SF-268 > 50 µM | UACC-62 > 50 µM | HCC 2998 > 50 µM | HL-60 > 50 µM | KM12 > 50 µM | UACC-257 > 50 µM | CAKI-1 > 50 µM

O=C(/C=C/c1ccc(Cl)c(Cl)c1)c1cccc2ccccc12
inactive: M19-MEL 11.7 µM | COLO 205 12.3 µM | Malme-3M 18.4 µM | 786-0 3.4 µM | OVCAR-5 13.8 µM | SF-268 4.52 µM | UACC-62 12.9 µM | HCC 2998 10.4 µM | HL-60 2.07 µM | SNB-75 3.51 µM | KM12 4.4 µM | SK-MEL-5 19.1 µM | UACC-257 15.9 µM | CAKI-1 7.36 µM

O=C1c2ccccc2C(=O)c2nc3ccc(Cl)cc3cc21
inactive: M19-MEL > 100 µM | COLO 205 > 100 µM | Malme-3M > 100 µM | 786-0 > 100 µM | MOLT-4 > 100 µM | OVCAR-5 > 100 µM | SF-268 > 100 µM | UACC-62 > 100 µM | HCC 2998 > 100 µM | SNB-75 > 100 µM | KM12 > 100 µM | SK-MEL-5 > 100 µM | CAKI-1 > 100 µM

N#C/C(=C\c1ccc2ccccc2c1)c1ccccc1
inactive: M19-MEL 26.6 µM | COLO 205 17.8 µM | 786-0 18.9 µM | MOLT-4 39.5 µM | OVCAR-5 98.2 µM | SF-268 39.6 µM | UACC-62 13.1 µM | HCC 2998 21.7 µM | SNB-75 23.2 µM | KM12 27.7 µM | SK-MEL-5 16.7 µM | UACC-257 25.5 µM | CAKI-1 17.8 µM

O=C1OC(=O)c2c1c(-c1ccccc1)cn2-c1ccc(Cl)cc1
inactive: M19-MEL 21.1 µM | COLO 205 10.6 µM | Malme-3M > 100 µM | 786-0 > 100 µM | MOLT-4 15 µM | OVCAR-5 > 100 µM | SF-268 > 100 µM | UACC-62 1.64 µM | HCC 2998 > 100 µM | HL-60 1.15 µM | SNB-75 > 100 µM | KM12 86.1 µM | SK-MEL-5 3.38 µM | UACC-257 > 100 µM
